Columns and labels:
Type in all cases: cell-based
human TLR7 = molecular target: T1, human TLR7 (Homo sapiens, UniProt Q9NYK1); experiment: TLR7 inhibition reporter assay (HEK-Blue cells, SEAP reporter, gardiquimod stimulation); settings: HEK-Blue cells overexpressing human TLR7, SEAP reporter, gardiquimod 7.5 μM
T1 construct: host or cells: HEK-Blue cells (HEK293-derived reporter line)
T1 sequence (Q9NYK1 27-1049): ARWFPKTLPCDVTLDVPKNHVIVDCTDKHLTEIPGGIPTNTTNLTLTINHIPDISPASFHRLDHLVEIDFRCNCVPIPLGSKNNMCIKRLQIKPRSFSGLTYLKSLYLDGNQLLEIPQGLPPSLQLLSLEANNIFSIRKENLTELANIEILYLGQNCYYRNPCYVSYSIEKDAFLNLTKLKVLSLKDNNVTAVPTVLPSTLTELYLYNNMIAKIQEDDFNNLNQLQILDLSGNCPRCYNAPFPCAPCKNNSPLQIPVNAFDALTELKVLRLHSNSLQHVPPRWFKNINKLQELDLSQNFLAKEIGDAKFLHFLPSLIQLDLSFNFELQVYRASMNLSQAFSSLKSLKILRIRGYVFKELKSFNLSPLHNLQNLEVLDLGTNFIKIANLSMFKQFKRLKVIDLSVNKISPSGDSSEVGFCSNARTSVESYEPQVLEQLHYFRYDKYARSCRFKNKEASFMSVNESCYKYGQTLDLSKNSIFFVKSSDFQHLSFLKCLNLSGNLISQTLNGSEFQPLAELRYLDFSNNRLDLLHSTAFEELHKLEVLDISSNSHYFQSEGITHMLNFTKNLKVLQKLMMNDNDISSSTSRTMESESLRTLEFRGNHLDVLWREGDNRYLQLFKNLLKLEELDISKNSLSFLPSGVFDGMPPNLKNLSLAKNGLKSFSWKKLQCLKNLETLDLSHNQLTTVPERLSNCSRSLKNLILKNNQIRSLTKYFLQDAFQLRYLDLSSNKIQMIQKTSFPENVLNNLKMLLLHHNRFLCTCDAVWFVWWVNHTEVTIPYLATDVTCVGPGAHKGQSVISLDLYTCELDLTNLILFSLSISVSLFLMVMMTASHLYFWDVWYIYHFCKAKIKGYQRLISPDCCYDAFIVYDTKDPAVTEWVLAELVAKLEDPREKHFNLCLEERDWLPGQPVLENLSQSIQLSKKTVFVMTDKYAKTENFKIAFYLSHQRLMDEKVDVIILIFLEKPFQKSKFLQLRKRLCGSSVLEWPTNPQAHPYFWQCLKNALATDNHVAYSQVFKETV
Outline: (§1)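 HEK-Blue cells overexpressing the receptor, with NF-κB/AP-1-driven SEAP, were pre-treated 30 min at room temperature with compound (0.05 nM–50 μM), then stimulated with gardiquimod 7.5 μM (TLR7), R848 15.9 μM (TLR8) or ODN2006 5 nM (TLR9). SEAP was read after 22 h at 37 °C as percent inhibition.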

human TLR8 = molecular target: T2, human TLR8 (Homo sapiens, UniProt Q9NR97); experiment: TLR8 inhibition reporter assay (HEK-Blue cells, SEAP reporter, R848 stimulation); settings: HEK-Blue cells overexpressing human TLR8, SEAP reporter, R848 15.9 μM
T2 construct: host or cells: HEK-Blue cells (HEK293-derived reporter line)
T2 sequence (Q9NR97 27-1041): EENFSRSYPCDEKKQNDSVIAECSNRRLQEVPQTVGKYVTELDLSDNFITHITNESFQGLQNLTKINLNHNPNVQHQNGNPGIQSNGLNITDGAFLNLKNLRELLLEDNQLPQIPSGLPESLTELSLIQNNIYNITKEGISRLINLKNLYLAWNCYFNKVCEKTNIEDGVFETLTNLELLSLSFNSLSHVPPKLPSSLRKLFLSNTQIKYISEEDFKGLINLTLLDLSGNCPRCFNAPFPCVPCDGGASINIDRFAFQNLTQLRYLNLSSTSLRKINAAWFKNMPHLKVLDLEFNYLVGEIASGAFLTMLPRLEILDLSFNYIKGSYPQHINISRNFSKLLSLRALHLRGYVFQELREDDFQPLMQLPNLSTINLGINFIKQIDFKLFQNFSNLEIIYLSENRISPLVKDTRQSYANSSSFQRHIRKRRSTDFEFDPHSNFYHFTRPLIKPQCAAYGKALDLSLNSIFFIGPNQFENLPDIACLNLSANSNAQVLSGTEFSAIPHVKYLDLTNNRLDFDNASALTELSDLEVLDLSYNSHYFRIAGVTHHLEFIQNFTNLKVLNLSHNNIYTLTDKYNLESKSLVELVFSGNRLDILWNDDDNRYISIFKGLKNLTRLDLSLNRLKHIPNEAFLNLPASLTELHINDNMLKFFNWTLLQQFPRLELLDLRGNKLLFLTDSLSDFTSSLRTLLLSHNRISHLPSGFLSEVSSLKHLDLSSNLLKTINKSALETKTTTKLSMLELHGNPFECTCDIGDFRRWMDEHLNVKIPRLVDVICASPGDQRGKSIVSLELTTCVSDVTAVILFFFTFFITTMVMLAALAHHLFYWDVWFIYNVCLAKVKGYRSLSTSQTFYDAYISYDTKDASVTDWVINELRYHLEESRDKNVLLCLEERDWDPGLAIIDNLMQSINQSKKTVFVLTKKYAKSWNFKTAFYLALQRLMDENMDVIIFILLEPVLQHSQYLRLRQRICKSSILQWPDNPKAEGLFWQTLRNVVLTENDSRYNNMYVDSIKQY
Outline: as §1

human TLR9 = molecular target: T3, human TLR9 (Homo sapiens, UniProt Q9NR96); experiment: TLR9 inhibition reporter assay (HEK-Blue cells, SEAP reporter, ODN2006 stimulation); settings: HEK-Blue cells overexpressing human TLR9, SEAP reporter, ODN2006 5 nM
T3 construct: host or cells: HEK-Blue cells (HEK293-derived reporter line)
T3 sequence (Q9NR96 26-1032): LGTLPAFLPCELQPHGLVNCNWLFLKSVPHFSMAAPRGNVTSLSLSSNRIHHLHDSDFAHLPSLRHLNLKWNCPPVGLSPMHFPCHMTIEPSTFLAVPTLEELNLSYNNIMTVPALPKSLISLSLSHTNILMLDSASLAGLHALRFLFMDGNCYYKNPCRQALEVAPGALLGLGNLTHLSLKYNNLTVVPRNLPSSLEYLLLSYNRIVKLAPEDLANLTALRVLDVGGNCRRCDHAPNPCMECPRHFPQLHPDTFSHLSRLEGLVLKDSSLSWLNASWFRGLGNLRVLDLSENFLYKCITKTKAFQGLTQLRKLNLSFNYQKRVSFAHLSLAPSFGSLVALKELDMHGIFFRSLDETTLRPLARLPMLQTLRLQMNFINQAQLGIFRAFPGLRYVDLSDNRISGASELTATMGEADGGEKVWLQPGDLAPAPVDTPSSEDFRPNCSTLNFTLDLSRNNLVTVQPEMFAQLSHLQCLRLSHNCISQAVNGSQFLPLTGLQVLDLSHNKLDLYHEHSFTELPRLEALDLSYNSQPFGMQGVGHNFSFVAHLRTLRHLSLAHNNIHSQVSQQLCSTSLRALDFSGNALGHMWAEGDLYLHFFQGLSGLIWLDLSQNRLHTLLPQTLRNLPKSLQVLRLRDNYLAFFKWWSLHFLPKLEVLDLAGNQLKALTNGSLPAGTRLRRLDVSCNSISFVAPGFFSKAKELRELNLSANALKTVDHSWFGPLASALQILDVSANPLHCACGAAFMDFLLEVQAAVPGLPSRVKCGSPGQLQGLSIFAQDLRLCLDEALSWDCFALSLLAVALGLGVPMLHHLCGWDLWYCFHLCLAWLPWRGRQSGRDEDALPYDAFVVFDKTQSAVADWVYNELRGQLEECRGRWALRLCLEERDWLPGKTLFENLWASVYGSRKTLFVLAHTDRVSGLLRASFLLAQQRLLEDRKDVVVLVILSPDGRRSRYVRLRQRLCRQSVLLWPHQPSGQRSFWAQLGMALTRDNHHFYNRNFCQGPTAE
Outline: as §1

IC50 (human TLR7) [nM]	IC50 (human TLR8) [nM]	IC50 (human TLR9) [nM]	Compound
< 100	< 100	100 to 1000	Cc1cc(-c2[nH]c3ccc(C4CCN(C5COC5)CC4)cc3c2C(C)C)cn2ccnc12 [Example 719, 6-(3-isopropyl-5-(1-(oxetan-3-yl)piperidin-4-yl)-1H-indol-2-yl)-8-methylimidazo[1,2-a]pyridine]
< 100	< 100	1000 to 50000	Cc1c(C2CCNCC2)ccc2[nH]c(-c3ccnc4[nH]ncc34)c(C)c12 [Example 256, 4-(3,4-dimethyl-5-(piperidin-4-yl)-1H-indol-2-yl)-1H-pyrazolo[3,4-b]pyridine]
100 to 1000	< 100	1000 to 50000	CCc1c(-c2ccnc3[nH]ncc23)[nH]c2ccc(C3CCN(Cc4c(C)noc4C)CC3)cc12 [Example 893, 4-((4-(3-ethyl-2-(1H-pyrazolo[3,4-b]pyridin-4-yl)-1H-indol-5-yl)piperidin-1-yl)methyl)-3,5-dimethylisoxazole]
1000 to 50000	1000 to 50000	100 to 1000	Cc1c(-c2ccnn3ccnc23)[nH]c2ccc(C3CCN(C4CCN(C(C)C)CC4)CC3)cc12 [Example 807, 8-(5-(1′-isopropyl-[1,4′-bipiperidin]-4-yl)-3-methyl-1H-indol-2-yl)imidazo[1,2-b]pyridazine]
< 100	< 100	1000 to 50000	CCN(C)CC(=O)N1CCC(c2ccc3[nH]c(-c4cc(C)c5nnnn5c4)c(C(C)C)c3c2)CC1 [Example 475, 2-(ethyl(methyl)amino)-1-(4-(3-isopropyl-2-(8-methyltetrazolo[1,5-a]pyridin-6-yl)-1H-indol-5-yl)piperidin-1-yl)ethan-1-one]

Continued, molecule first:

Compound	IC50 (human TLR7) [nM]	IC50 (human TLR8) [nM]	IC50 (human TLR9) [nM]
Cc1nc2c(-c3[nH]c4ccc(C5CCNCC5)cc4c3C(C)C)ccc(C)n2n1 [Example 151, 8-(3-isopropyl-5-(piperidin-4-yl)-1H-indol-2-yl)-2,5-dimethyl-[1,2,4]triazolo[1,5-a]pyridine]	100 to 1000	100 to 1000	100 to 1000
CC(C)c1c(-c2cnc3c(cnn3C)c2)[nH]c2ccc(C3CCNCC3)cc12 [Example 96, 5-(3-isopropyl-5-(piperidin-4-yl)-1H-indol-2-yl)-1-methyl-1H-pyrazolo[3,4-b]pyridine]	< 100	< 100	100 to 1000
CC(C)c1c(-c2ccc(C#N)c3ncccc23)[nH]c2ccc(C3CCN(CC(=O)N(C)C)CC3)cc12 [Example 370, 2-(4-(2-(8-cyanoquinolin-5-yl)-3-isopropyl-1H-indol-5-yl)piperidin-1-yl)-N,N-dimethylacetamide]	< 100	< 100	1000 to 50000
CCc1c(-c2ccnc3[nH]ncc23)[nH]c2ccc(C3CCN(C(=O)CN)CC3)cc12 [Example 461, 2-amino-1-(4-(3-ethyl-2-(1H-pyrazolo[3,4-b]pyridin-4-yl)-1H-indol-5-yl)piperidin-1-yl)ethan-1-one]	100 to 1000	< 100	1000 to 50000
Cc1cc2cc(-c3[nH]c4ccc(C5CCN(C(=O)CN(C)C)CC5)cc4c3C(C)C)cc(C)n2n1 [Example 552, 2-(dimethylamino)-1-(4-(2-(2,7-dimethylpyrazolo[1,5-a]pyridin-5-yl)-3-isopropyl-1H-indol-5-yl)piperidin-1-yl)ethan-1-one]	< 100	< 100	100 to 1000
CCc1c(-c2ccnc3[nH]nc(C)c23)[nH]c2ccc(C3CCN(Cc4cnc[nH]4)CC3)cc12 [Example 873, 4-(5-(1-((1H-imidazol-5-yl)methyl)piperidin-4-yl)-3-ethyl-1H-indol-2-yl)-3-methyl-1H-pyrazolo[3,4-b]pyridine]	< 100	< 100	100 to 1000
CCc1c(C)c(-c2[nH]c3ccc(C4CCNCC4)cc3c2C(C)C)cn2ccnc12 [Example 272, 8-ethyl-6-(3-isopropyl-5-(piperidin-4-yl)-1H-5 indol-2-yl)-7-methylimidazo[1,2-a]pyridine]	< 100	< 100	100 to 1000
CCc1c(-c2ccc3oc(=O)[nH]c3c2)[nH]c2ccc(C3CCNCC3)cc12 [Example 168, 5-(3-ethyl-5-(piperidin-4-yl)-1H-indol-2-yl)benzo[d]oxazol-2(3H)-one]	100 to 1000	100 to 1000	100 to 1000
COc1cc(-c2[nH]c3ccc(C4CCNCC4)cc3c2C(C)C)cc2nccn12 [Example 163, 7-(3-isopropyl-5-(piperidin-4-yl)-1H-indol-2-yl)-5-methoxyimidazo[1,2-a]pyridine]	100 to 1000	100 to 1000	100 to 1000
Cc1cc2nnnn2cc1-c1[nH]c2ccc(C3CCN(Cc4ccn(C)n4)CC3)cc2c1C(C)C [Example 887, 6-(3-isopropyl-5-(1-((1-methyl-1H-pyrazol-3-yl)methyl)piperidin-4-yl)-1H-indol-2-yl)-7-methyltetrazolo[1,5-a]pyridine]	< 100	< 100	1000 to 50000

Reference: US11739098B2 (BRISTOL-MYERS SQUIBB COMPANY, priority 2017, dated 2023)
